Data on 1 compound can be found in publication PMC2364081, “Antagonists of retinoic acid receptors (RARs) are potent growth inhibitors of prostate carcinoma cells” (British Journal of Cancer, 2001).

For one data set, the system named is HL60 cells. Briefly: Clonal growth of single serum-free grown HL60 cells in microtitre wells. Format: cell-based, human. The source says:
(§1) Prostate cancer is one of the most common cancers in European and American males and has a high mortality rate (Landis et al, 1998; Rosenthal, 1998). Early disease is managed conservatively in Europe although in selected patients surgery is curative. In advanced disease, androgen ablation can produce symptomatic improvement, but the tumour often re-emerges in an androgen- independent and incurable form. One proposed treatment for androgen-independent prostate carcinoma is differentiation ther- apy, in which agents such as all-trans-retinoic acid (ATRA), 9-cis- retinoic acid and 1, 25-dihydroxyvitamin D3 (D3 ) are used to induce growth arrest, differentiation and sometimes apoptosis of the tumour cells (Liang et al, 1999; de Vos et al, 1997; Skowronski et al, 1994; Hedlund et al, 1997). ATRA and synthetic analogues exert their biological effects by binding to two families of retinoid receptors, […]. These are ligand-dependent transcription factors of the steroid/thyroid hormone nuclear receptor superfamily (Chambon 1994; Boehm et al, 1995). Activated RARs bind to retinoic acid-responsive elements (RAREs) in the promoters of genes and thus regulate gene expression. They also antagonize the activity of the tran- scription factor AP1 and thereby down-regulate the expression of some AP1-activated genes (Nagpal et al, 1995). One approach to unravelling the contributions of RAR sub-types to these actions has been the development of synthetic retinoids with selective activities at individual RARs and RXRs. For example, the diaryl- acetylenic retinoids allow separation of transactivation and AP1 antagonism functions at RAR (Nagpal et al, 1995). Recently, compounds that are selective for particular RAR sub-types have been synthesized: these include both agonists and antagonists (Chandraratna, 1995; Teng et al, 1999; Johnson et al, 1999). The functional selectivity of these compounds may open the way to achieving differentiation or apoptosis of tumour cells with minimal systemic side effects (Chandraratna, 1995). Cell lines that are commonly used in the evaluation of investiga- tional agents for prostate cancer include LNCaP, DU-145 and PC- 3. […] These lines are relatively insensitive to growth inhibition and induction of apoptosis by ATRA and by synthetic agonists. […] Fenretinide (4HPR) induces apoptosis of LNCaP and of PC-3 cells at 1-5 M and 25 µM, respectively (Pienta et al, 1993; Heish and Wu, 1997). Pfahl and colleagues examined the growth inhibitory effects of a panel of receptor-selective retinoids against DU145 and PC-3 cells and achieved complete growth inhibition and induction of apoptosis between 1 M and 10 M (Lu et al, 1999). […] Antagonists of retinoic acid receptors (RARs) are potent growth inhibitors of prostate carcinoma cells LA Hammond1 , CH Van Krinks2 , J Durham2 , SE Tomkins2 , RD Burnett3 , EL Jones1 , RAS Chandraratna3 and G Brown2 Divisions of 1 Cancer Studies and of 2 Immunity and Infection, University of Birmingham Medical School, Edgbaston, Birmingham B15 2TT, UK and 3 Retinoid Research, Allergan Inc., Irvine, California, USA Summary Novel synthetic antagonists of retinoic acid receptors (RARs) have been developed. To avoid interference by serum retinoids when testing these compounds, we established serum-free grown sub-lines (>3 years) of the prostate carcinoma lines LNCaP, PC3 and DU145. […] A component(s) of serum and of LNCaP-conditioned medium diminishes the activity of antagonists: this factor is not the most likely candidates IGF-1 and EGF. In vitro studies of RAR antagonists together with data from RAR-null mice lead to the hypothesis that RAR-regulated gene transcription is necessary for the survival and maintenance of prostate epithelium. […]

The target in the next data set is T1, RARγ (Homo sapiens, UniProt P13631).
T1 sequence (P13631 1-454): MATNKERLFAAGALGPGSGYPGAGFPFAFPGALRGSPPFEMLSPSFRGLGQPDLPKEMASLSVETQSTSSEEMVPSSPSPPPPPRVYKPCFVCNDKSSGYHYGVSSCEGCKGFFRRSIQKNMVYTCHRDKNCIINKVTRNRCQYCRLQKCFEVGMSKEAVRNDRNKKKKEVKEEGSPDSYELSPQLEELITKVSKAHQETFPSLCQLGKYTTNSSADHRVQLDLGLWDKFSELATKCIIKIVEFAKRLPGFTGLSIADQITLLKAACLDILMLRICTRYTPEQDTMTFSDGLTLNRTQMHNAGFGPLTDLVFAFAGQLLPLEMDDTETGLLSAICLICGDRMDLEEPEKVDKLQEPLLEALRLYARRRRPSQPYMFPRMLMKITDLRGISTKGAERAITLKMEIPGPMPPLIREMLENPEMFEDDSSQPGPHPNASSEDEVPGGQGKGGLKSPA
Briefly: Binding to baculovirus-expressed RARγ. Conditions: baculovirus-expressed receptor. Further details: made in house.
From the text: as §1

In the next data set the target is RARs. Briefly: Binding to RARs (stated over all three subtypes). As to conditions: range over RARα, RARβ and RARγ. From the text:
(§2) Prostate cancer is one of the most common cancers in European and American males and has a high mortality rate (Landis et al, 1998; Rosenthal, 1998). Early disease is managed conservatively in Europe although in selected patients surgery is curative. In advanced disease, androgen ablation can produce symptomatic improvement, but the tumour often re-emerges in an androgen- independent and incurable form. One proposed treatment for androgen-independent prostate carcinoma is differentiation ther- apy, in which agents such as all-trans-retinoic acid (ATRA), 9-cis- retinoic acid and 1, 25-dihydroxyvitamin D3 (D3 ) are used to induce growth arrest, differentiation and sometimes apoptosis of the tumour cells (Liang et al, 1999; de Vos et al, 1997; Skowronski et al, 1994; Hedlund et al, 1997). ATRA and synthetic analogues exert their biological effects by binding to two families of retinoid receptors, […]. These are ligand-dependent transcription factors of the steroid/thyroid hormone nuclear receptor superfamily (Chambon 1994; Boehm et al, 1995). Activated RARs bind to retinoic acid-responsive elements (RAREs) in the promoters of genes and thus regulate gene expression. They also antagonize the activity of the tran- scription factor AP1 and thereby down-regulate the expression of some AP1-activated genes (Nagpal et al, 1995). […]

Data set [1] concerns FBS-grown LNCaP, DU145 and PC3 cells. In words: Plate colony formation assay, stated over the three FBS-grown lines. Format: cell-based, human. Conditions: 100 nM.
From the text: as §2

With `CCc1ccc(C2=CC(C)(C)Sc3ccc(C#Cc4ccc(C(=O)O)cc4)cc32)cc1` [AGN194310], in the data set on HL60 cells, the “effect on clonal growth of HL60 cells” value is reported as “did not adversely affect”. Also, the “viability of the single cells” value in the data set with HL60 cells (0.1 µM) is recorded as > 95%. In addition, in the data set on HL60 cells (100 nM, control 18), the “number of viable cells at day 4” value is listed as 17. For the same compound, the cloning efficiency in the data set with HL60 cells (100 nM, same as untreated) is 90-93%. In addition, the dissociation constant Kd on RARγ is 5 nM; on RARs, 2 to 5 nM. Moreover, the “inhibition of colony formation” value in data set [1] was 11-23%.

By Kd is commonly meant the free concentration of one partner at which half of the binding sites on the other are occupied at equilibrium, for simple one-to-one binding. High values mean a looser complex, low ones a tighter complex.
